Source: ChEMBL document CHEMBL4477208, “Discovery and Rational Design of Pteridin-7(8H)-one-Based Inhibitors Targeting FMS-like Tyrosine Kinase 3 (FLT3) and Its Mutants” (J Med Chem, 2016)
Activity calls are given as the source filed them. The rule behind the calls is not given here.

Assays:
MV4-11 [1] = assay: Induction of apoptosis in human MV4-11 cells assessed as apoptotic cells after 48 hrs by annexin V/propidium iodide staining based FACS analysis; assay type: functional, cell-based
MV4-11 [2] = assay: Induction of apoptosis in human MV4-11 cells assessed as viable cells at 1000 nM after 48 hrs by annexin V/propidium iodide staining based FACS analysis (reference value: 90.60%); assay type: functional; settings: MV4-11, 48 h, read-out: Activity
[3] = Cmax in overnight fasted Sprague-Dawley rat plasma at 1 mg/kg, iv up to 24 hrs by LC-MS/MS analysis; assay type: ADME, organism-based; design: dose 1 mg/kg, route intravenous
MV4-11 [4] = assay: Antitumor activity against human MV4-11 cells xenografted in nude BALB/c mouse assessed as induction of late stage apoptosis at 50 mg/kg, po qd measured after 1 to 3 days by TUNEL assay; assay type: functional, organism-based
[5] = biological target: Platelet-derived growth factor receptor beta (Homo sapiens) (UniProt P09619); assay: Inhibition of human PDGFRB expressed in bacterial system assessed as remaining enzyme activity at 1 uM relative to untreated control
MV4-11 [6] = assay: Induction of apoptosis in human MV4-11 cells assessed as late apoptotic cells at 1 nM after 48 hrs by annexin V/propidium iodide staining based FACS analysis (reference value: 3.01%); assay type: functional
[7] = biological target: Interleukin-1 receptor-associated kinase 1 (Homo sapiens) (UniProt P51617); assay: Inhibition of human IRAK1 expressed in mammalian system assessed as remaining enzyme activity at 1 uM relative to untreated control
MV4-11 [8] = assay: Induction of apoptosis in human MV4-11 cells assessed as early apoptotic cells at 1 nM after 48 hrs by annexin V/propidium iodide staining based FACS analysis (reference value: 6.31%); assay type: functional
[9] = system: Receptor-type tyrosine-protein kinase FLT3 (Homo sapiens), P36888 [D835V]; assay: Inhibition of human FLT3 D835V mutant expressed in mammalian system assessed as remaining enzyme activity at 1 uM relative to untreated control
MV4-11 [10] = assay: Induction of apoptosis in human MV4-11 cells assessed as late apoptotic cells at 1000 nM after 48 hrs by annexin V/propidium iodide staining based FACS analysis (reference value: 3.01%); assay type: functional
[11] = biological target: Macrophage colony-stimulating factor 1 receptor (Homo sapiens) (UniProt P07333); assay: Inhibition of human CSF1R expressed in bacterial system assessed as remaining enzyme activity at 1 uM relative to untreated control
NCI-H209 = assay: Antiproliferative activity against human H209 cells after 72 hrs by MTT assay; assay type: functional, cell-based; settings: NCI-H209, 72 h
MV4-11 [12] = assay: Cell cycle arrest in human MV4-11 cells assessed as accumulation at subG1 phase after 48 hrs by PI/RNase staining based FACS analysis; assay type: functional
MV4-11 [13] = assay: Cell cycle arrest in human MV4-11 cells assessed as accumulation at S phase at 1 nM after 48 hrs by PI/RNase staining based FACS analysis (reference value: 16.50%); assay type: functional
SH-SY5Y = assay: Antiproliferative activity against human SH-SY5Y cells after 72 hrs by SRB assay; assay type: functional, cell-based
RKO = assay: Antiproliferative activity against human RKO cells after 72 hrs by SRB assay; assay type: functional, cell-based
[14] = AUC (0 to infinity) in overnight fasted Sprague-Dawley rat plasma at 10 mg/kg administered via oral gavage up to 24 hrs by LC-MS/MS analysis; assay type: ADME, organism-based; design: dose 10 mg/kg, route oral, time infinity
MV4-11 [15] = assay: Induction of apoptosis in human MV4-11 cells assessed as necrotic cells at 100 nM after 48 hrs by annexin V/propidium iodide staining based FACS analysis (reference value: 0.05%); assay type: functional
[16] = biological target: T1, Receptor-type tyrosine-protein kinase FLT3 (Homo sapiens, UniProt P36888); assay: Binding affinity to auto-inhibited human partial length wild type FLT3 (564 to 969 residues) expressed in mammalian expression system after 1 hr
T1 sequence (P36888 whole entry): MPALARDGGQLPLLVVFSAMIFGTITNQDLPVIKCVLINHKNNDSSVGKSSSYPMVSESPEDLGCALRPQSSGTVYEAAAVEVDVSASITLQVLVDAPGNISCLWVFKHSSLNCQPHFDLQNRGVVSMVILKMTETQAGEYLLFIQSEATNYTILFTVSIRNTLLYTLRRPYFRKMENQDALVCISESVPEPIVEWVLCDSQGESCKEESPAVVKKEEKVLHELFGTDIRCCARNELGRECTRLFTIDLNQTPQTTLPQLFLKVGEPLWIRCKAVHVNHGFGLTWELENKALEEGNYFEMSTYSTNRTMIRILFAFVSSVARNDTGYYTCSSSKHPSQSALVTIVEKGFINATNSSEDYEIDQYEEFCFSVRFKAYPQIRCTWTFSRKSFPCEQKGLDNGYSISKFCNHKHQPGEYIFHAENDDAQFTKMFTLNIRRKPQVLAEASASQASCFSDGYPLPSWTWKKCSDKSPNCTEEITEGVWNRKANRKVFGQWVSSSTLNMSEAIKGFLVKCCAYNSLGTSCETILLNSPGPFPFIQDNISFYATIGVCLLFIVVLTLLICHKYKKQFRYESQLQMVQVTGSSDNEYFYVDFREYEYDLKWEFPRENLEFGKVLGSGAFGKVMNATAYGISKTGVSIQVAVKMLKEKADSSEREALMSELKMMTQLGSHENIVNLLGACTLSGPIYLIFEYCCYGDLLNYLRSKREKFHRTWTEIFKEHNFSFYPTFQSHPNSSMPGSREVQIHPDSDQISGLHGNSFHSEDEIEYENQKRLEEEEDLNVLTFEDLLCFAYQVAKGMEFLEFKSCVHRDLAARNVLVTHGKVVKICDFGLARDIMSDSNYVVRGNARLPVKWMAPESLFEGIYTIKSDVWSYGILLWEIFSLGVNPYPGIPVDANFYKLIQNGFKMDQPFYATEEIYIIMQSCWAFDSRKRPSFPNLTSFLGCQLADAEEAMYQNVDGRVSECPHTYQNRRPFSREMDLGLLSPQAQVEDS

MV4-11 [17] = assay: Cell cycle arrest in human MV4-11 cells assessed as accumulation at subG1 phase at 100 nM after 48 hrs by PI/RNase staining based FACS analysis (reference value: 0%); assay type: functional
MV4-11 [18] = assay: Cell cycle arrest in human MV4-11 cells assessed as accumulation at G0/G1 phase at 100 nM after 48 hrs by PI/RNase staining based FACS analysis (reference value: 69.55%); assay type: functional
[19] = system: Receptor-type tyrosine-protein kinase FLT3 (Homo sapiens), P36888 [UNDEFINED MUTATION]; assay: Inhibition of human FLT3 ITD/D835V mutant expressed in mammalian system assessed as remaining enzyme activity at 1 uM relative to untreated control
MV4-11 [20] = assay: Antitumor activity against human MV4-11 cells xenografted in nude BALB/c mouse assessed as reduction in tumor cell proliferation by measuring Ki67 positive cells at 50 mg/kg, po qd measured after 1 to 3 days by immunohistochemical assay; assay type: functional, organism-based
[21] = system: Receptor-type tyrosine-protein kinase FLT3 (Homo sapiens), P36888 [N841I]; assay: Inhibition of human FLT3 N841I mutant expressed in bacterial system assessed as remaining enzyme activity at 1 uM relative to untreated control

Sequence of Macrophage colony-stimulating factor 1 receptor (Homo sapiens) (P07333 whole entry): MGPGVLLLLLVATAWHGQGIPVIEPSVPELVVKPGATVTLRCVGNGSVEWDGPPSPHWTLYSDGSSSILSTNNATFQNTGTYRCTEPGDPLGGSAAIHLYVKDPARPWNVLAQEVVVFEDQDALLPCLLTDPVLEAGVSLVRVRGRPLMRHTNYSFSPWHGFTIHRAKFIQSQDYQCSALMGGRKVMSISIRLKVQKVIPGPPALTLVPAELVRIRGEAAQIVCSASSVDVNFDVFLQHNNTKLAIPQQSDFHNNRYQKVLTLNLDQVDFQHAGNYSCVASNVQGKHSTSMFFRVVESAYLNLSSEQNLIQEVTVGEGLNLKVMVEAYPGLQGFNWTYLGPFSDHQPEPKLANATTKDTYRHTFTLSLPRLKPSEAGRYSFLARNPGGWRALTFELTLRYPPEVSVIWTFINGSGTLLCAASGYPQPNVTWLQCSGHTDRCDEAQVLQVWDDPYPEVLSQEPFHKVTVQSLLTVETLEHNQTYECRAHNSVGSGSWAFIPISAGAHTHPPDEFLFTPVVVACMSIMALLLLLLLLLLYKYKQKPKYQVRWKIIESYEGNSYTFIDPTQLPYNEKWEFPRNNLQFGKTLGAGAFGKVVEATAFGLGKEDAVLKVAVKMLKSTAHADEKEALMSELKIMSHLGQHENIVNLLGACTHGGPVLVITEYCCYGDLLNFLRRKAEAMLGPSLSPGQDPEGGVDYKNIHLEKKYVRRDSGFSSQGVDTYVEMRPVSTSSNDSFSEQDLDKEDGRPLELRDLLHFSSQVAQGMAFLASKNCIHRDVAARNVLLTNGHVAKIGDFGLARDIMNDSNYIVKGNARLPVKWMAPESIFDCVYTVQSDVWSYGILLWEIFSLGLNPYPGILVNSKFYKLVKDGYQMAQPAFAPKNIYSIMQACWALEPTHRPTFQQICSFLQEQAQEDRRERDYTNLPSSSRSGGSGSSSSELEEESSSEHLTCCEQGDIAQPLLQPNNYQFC
Sequence of Platelet-derived growth factor receptor beta (Homo sapiens) (P09619 whole entry): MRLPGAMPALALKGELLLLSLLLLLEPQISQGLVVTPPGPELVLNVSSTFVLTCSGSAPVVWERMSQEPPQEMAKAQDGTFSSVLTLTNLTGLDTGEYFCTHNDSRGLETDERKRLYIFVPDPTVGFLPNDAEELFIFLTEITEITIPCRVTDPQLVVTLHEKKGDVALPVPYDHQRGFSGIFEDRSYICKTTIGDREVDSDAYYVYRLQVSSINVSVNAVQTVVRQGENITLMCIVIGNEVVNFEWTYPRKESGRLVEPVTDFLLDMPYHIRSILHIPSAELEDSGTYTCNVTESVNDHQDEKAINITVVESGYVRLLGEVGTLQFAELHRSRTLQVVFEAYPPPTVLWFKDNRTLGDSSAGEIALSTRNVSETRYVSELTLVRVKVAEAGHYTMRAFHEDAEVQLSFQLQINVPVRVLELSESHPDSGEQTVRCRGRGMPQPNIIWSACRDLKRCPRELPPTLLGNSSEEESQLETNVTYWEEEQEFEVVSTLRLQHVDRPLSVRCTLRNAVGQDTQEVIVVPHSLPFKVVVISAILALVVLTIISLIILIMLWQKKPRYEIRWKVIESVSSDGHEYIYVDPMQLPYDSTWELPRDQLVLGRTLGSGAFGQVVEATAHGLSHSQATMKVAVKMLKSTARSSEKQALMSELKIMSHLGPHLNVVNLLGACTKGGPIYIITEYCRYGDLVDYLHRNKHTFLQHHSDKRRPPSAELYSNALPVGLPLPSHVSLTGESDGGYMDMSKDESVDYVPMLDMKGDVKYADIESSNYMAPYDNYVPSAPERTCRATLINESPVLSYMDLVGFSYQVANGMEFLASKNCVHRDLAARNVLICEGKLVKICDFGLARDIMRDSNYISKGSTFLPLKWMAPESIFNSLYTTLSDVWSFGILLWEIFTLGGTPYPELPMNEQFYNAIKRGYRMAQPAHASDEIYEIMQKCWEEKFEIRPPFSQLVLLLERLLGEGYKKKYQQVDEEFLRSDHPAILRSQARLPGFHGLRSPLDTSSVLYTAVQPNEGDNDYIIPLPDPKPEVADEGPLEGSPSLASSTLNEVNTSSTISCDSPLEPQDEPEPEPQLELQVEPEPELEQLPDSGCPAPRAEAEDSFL
Sequence of Interleukin-1 receptor-associated kinase 1 (Homo sapiens) (P51617 whole entry, looked up): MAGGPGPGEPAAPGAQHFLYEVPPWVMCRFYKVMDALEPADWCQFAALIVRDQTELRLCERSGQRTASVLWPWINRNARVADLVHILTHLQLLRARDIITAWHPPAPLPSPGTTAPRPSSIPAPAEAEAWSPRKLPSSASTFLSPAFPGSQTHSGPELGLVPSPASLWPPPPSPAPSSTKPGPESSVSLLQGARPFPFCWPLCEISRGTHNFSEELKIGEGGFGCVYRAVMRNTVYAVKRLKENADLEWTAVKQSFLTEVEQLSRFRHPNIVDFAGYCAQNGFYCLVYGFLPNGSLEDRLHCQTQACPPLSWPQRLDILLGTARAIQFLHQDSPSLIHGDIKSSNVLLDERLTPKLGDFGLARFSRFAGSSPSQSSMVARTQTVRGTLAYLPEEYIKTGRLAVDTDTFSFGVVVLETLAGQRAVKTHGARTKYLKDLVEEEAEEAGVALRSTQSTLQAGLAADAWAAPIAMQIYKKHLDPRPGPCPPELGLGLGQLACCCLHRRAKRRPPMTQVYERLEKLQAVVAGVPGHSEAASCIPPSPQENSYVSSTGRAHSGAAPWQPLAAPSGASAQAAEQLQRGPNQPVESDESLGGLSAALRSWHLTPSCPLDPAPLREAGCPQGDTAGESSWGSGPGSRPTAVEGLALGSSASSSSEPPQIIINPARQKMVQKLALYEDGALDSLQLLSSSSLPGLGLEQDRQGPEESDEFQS

With `Cc1cc(Nc2ncc3ncc(=O)n(-c4ccc(N)cc4)c3n2)ccc1N1CCN(C)CC1` the Activity (MV4-11 [1]) was “Dose-dependent effect”, the viability at 1 µM (MV4-11 [2]) was 27.3% and the Cmax [3] was 55.2 ng/mL. The Activity (MV4-11 [4]) was “Active”, the Activity [5] was less than 1% and the Activity (MV4-11 [6]) was 3.49%. The Activity [7] was less than 1%, the Activity (MV4-11 [8]) was 6.09% and the Activity [9] was less than 1%. The Activity (MV4-11 [10]) was 34.3%, the Activity [11] was less than 1% and the IC50 (NCI-H209) was greater than 10 µM. The Activity (MV4-11 [12]) was “Dose-dependent effect”, the Activity (MV4-11 [13]) was 21.77% and the IC50 (SH-SY5Y) was 5.57 µM. It also gave an IC50 (RKO) of 1.93 µM, an AUC(0-inf) [14] of 311 ng·h/mL and an Activity (MV4-11 [15]) of 0.25%. The Kd [16] was 0.079 µM, the Activity (MV4-11 [17]) was 12% and the Activity (MV4-11 [18]) was 85.92%. For the same compound, the Activity [19] was less than 1%, the Activity (MV4-11 [20]) was “Active” and the Activity [21] was less than 1%.
